Patent US11446287B2, “Compounds and methods for EP300 or CBP modulation and indications therefor” (Opna Immuno-Oncology SA, priority 2019, dated 2022)
pIC50: −log10 of the molar value.

The compounds below were run against T1, Recombinant human BRD4 containing dual bromodomains (BRD4-BD12 (1-477)) (Homo sapiens, UniProt O60885) (assay: BRD4 Alphascreen binding assay).
T1 construct: Recombinant human BRD4 containing dual bromodomains (BRD4-BD12 (1-477)); made in house; host or cells: E. coli BL21-CodonPlus (DE3), modified pET vector
Summary of the method: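 His-tagged human BRD4 tandem bromodomains (1-477, E. coli) incubated 1 h at room temperature with biotinylated tetra-acetylated H4 (1-21) peptide and compound in HEPES pH 7.5 buffer with 2 mM DTT. AlphaScreen signal read 30 min after adding beads (7.5 μg/ml); IC50 from four-parameter fit after normalization to controls.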
With `Cc1noc(C)c1-c1cnc2c(c1)c(-c1ccc(C(=O)O)cc1OC(C)C)cn2C1(C)CCOC1` (stereo not shown) [P-0407, 4-(5-(3,5-dimethylisoxazol-4-yl)-1-(3-methyltetrahydrofuran-3-yl)-1H-pyrrolo[2,3-b]pyridin-3-yl)-3-isopropoxybenzoic acid] the pIC50 was 3.00 to 5.10.
`CCOc1cc(C(=O)O)nc(OCC)c1-n1cc(-c2ccc(F)cc2F)c2ncc(-c3c(C)noc3C)cc21` [P-0431, 5-(3-(2,4-difluorophenyl)-6-(3,5-dimethylisoxazol-4-yl)-1H-pyrrolo[3,2-b]pyridin-1-yl)-4,6-diethoxypicolinic acid] showed a pIC50 of 5.10 to 6.00.
`Cc1noc(C)c1-c1cnc2c(c1)c(-c1c(F)cc(C(=O)O)cc1OC1CCC1)cn2C1CCOCC1` [P-0410, 3-cyclobutoxy-4-(5-(3,5-dimethylisoxazol-4-yl)-1-(tetrahydro-2H-pyran-4-yl)-1H-pyrrolo[2,3-b]pyridin-3-yl)-5-fluorobenzoic acid] gave a pIC50 of 3.00 to 5.10.
`Cc1noc(C)c1-c1cnc2c(c1)c(-c1ccc(C(=O)O)cc1OC(F)(F)F)cn2-c1ccc(=O)n(C)c1` [P-0399, 4-(5-(3,5-dimethylisoxazol-4-yl)-1-(1-methyl-6-oxo-1,6-dihydropyridin-3-yl)-1H-pyrrolo[2,3-b]pyridin-3-yl)-3-(trifluoromethoxy)benzoic acid] showed a pIC50 of 5.10 to 6.00.
`Cc1noc(C)c1-c1cnc2c(c1)c(-c1ccnc(C(=O)O)c1)cn2Cc1ccccn1` [P-0044, 4-(5-(3,5-dimethylisoxazol-4-yl)-1-(pyridin-2-ylmethyl)-1H-pyrrolo[2,3-b]pyridin-3-yl)picolinic acid] was tested, and the pIC50 was 6.00 to 10.00.
`Cc1noc(C)c1-c1cnc2c(c1)c(-c1cnn(CC(C)(C)O)c1)cn2C(c1ccccn1)C1CCCC1` (stereo not shown) [P-0037, 1-(4-(1-(cyclopentyl(pyridin-2-yl)methyl)-5-(3,5-dimethylisoxazol-4-yl)-1H-pyrrolo[2,3-b]pyridin-3-yl)-1H-pyrazol-1-yl)-2-methylpropan-2-ol] was tested, and the pIC50 was 5.10 to 6.00.
With `COc1ccc(CC(=O)O)cc1-c1cn(-c2ccc(F)cc2F)c2ncc(-c3c(C)noc3C)cc12` [P-0443, 2-(3-(1-(2,4-difluorophenyl)-5-(3,5-dimethylisoxazol-4-yl)-1H-pyrrolo[2,3-b]pyridin-3-yl)-4-methoxyphenyl)acetic acid] the pIC50 was 5.10 to 6.00.
In the case of `CCOc1cc(C(=O)O)c(F)cc1-c1cn(C2CCN(CCC#N)CC2)c2ncc(-c3c(C)noc3C)cc12` [P-0446, 4-(1-(1-(2-cyanoethyl)piperidin-4-yl)-5-(3,5-dimethylisoxazol-4-yl)-1H-pyrrolo[2,3-b]pyridin-3-yl)-5-ethoxy-2-fluorobenzoic acid], the pIC50 was 3.00 to 5.10.
For `COC(=O)c1cc(Cl)c(-c2cn(-c3ccc(C4CC4)nc3)c3ncc(-c4c(C)noc4C)cc23)c(OC(F)(F)F)c1` [P-0440, methyl 3-chloro-4-(1-(6-cyclopropylpyridin-3-yl)-5-(3,5-dimethylisoxazol-4-yl)-1H-pyrrolo[2,3-b]pyridin-3-yl)-5-(trifluoromethoxy)benzoate], the pIC50 was 3.00 to 5.10.
`CCc1onc(C)c1-c1cnc2c(c1)c(-c1ccc(C(=O)O)cc1OC(F)(F)F)cn2C1CCOCC1` [P-0401, 4-(5-(5-ethyl-3-methylisoxazol-4-yl)-1-(tetrahydro-2H-pyran-4-yl)-1H-pyrrolo[2,3-b]pyridin-3-yl)-3-(trifluoromethoxy)benzoic acid] gave a pIC50 of 5.10 to 6.00.
`Cc1noc(C)c1-c1cnc2c(c1)c(-c1cnn(C(C)(C)C(=O)O)c1)cn2C(c1ccccn1)C1CCCC1` (stereo not shown) [P-0035, 2-(4-(1-(cyclopentyl(pyridin-2-yl)methyl)-5-(3,5-dimethylisoxazol-4-yl)-1H-pyrrolo[2,3-b]pyridin-3-yl)-1H-pyrazol-1-yl)-2-methylpropanoic acid] was tested, and the pIC50 was 5.10 to 6.00.
Work on `Cc1noc(C)c1-c1cnc2c(c1)c(-c1cccc(C(=O)O)c1)cn2CC1CC1` [P-0050, 3-(1-(cyclopropylmethyl)-5-(3,5-dimethylisoxazol-4-yl)-1H-pyrrolo[2,3-b]pyridin-3-yl)benzoic acid] yielded a pIC50 of 3.00 to 5.10.
Compound `CCc1noc(C)c1-c1cnc2c(c1)c(-c1ccc(C(=O)O)cc1OC(F)(F)F)cn2C1CCOCC1` [P-0400, 4-(5-(3-ethyl-5-methylisoxazol-4-yl)-1-(tetrahydro-2H-pyran-4-yl)-1H-pyrrolo[2,3-b]pyridin-3-yl)-3-(trifluoromethoxy)benzoic acid] has a pIC50 of 5.10 to 6.00.
`CCOc1nc(C(=O)O)c(Cl)cc1-c1cn([C@H]2CCOC2)c2ncc(-c3c(C)noc3C)cc12` [P-0406, (S)-3-chloro-5-(5-(3,5-dimethylisoxazol-4-yl)-1-(tetrahydrofuran-3-yl)-1H-pyrrolo[2,3-b]pyridin-3-yl)-6-ethoxypicolinic acid] was tested, and the pIC50 was 3.00 to 5.10.
For `COC(=O)c1cc(-c2cn(C(c3ccccn3)C3CCCC3)c3ncc(-c4c(C)noc4C)cc23)ccn1` (stereo not shown) [P-0040, methyl 4-(1-(cyclopentyl(pyridin-2-yl)methyl)-5-(3,5-dimethylisoxazol-4-yl)-1H-pyrrolo[2,3-b]pyridin-3-yl)picolinate], the pIC50 was 5.10 to 6.00.
`CCOc1cc(C(=O)O)nc(OCC)c1-c1cn(-c2cn(CC)nc2C)c2ncc(-c3c(C)noc3C)cc12` [P-0430, 5-(5-(3,5-dimethylisoxazol-4-yl)-1-(1-ethyl-3-methyl-1H-pyrazol-4-yl)-1H-pyrrolo[2,3-b]pyridin-3-yl)-4,6-diethoxypicolinic acid] was tested, and the pIC50 was 5.10 to 6.00.
`CCOc1cc(C(=O)O)c(F)cc1-c1cn(C2CCN(C(=O)C(C)(C)C)CC2)c2ncc(-c3c(C)noc3C)cc12` [P-0445, 4-(5-(3,5-dimethylisoxazol-4-yl)-1-(1-pivaloylpiperidin-4-yl)-1H-pyrrolo[2,3-b]pyridin-3-yl)-5-ethoxy-2-fluorobenzoic acid] showed a pIC50 of 3.00 to 5.10.
Work on `Cc1noc(C)c1-c1cnc2c(c1)c(-c1ccc(CC(=O)O)cc1F)cn2-c1ccc(F)cc1F` [P-0437] yielded a pIC50 of 5.10 to 6.00.
In the case of `Cc1noc(C)c1-c1cnc2c(c1)c(-c1c(Cl)cc(C(=O)O)cc1OC(C)C)cn2-c1cnc(C2CC2)nc1` [P-0393, 3-chloro-4-(1-(2-cyclopropylpyrimidin-5-yl)-5-(3,5-dimethylisoxazol-4-yl)-1H-pyrrolo[2,3-b]pyridin-3-yl)-5-isopropoxybenzoic acid], the pIC50 was 5.10 to 6.00.
In the case of `CCOc1cc(C(=O)O)nc(OCC)c1-c1cn(-c2ncccc2C(N)=O)c2ncc(-c3c(C)noc3C)cc12` [P-0422, 5-(1-(3-carbamoylpyridin-2-yl)-5-(3,5-dimethylisoxazol-4-yl)-1H-pyrrolo[2,3-b]pyridin-3-yl)-4,6-diethoxypicolinic acid], the pIC50 was 3.00 to 5.10.
`CCOc1cc(C(=O)O)ncc1-c1cn(C(C2CC2)C2CC2)c2ncc(-c3c(C)noc3C)cc12` [P-0427, 5-(1-(dicyclopropylmethyl)-5-(3,5-dimethylisoxazol-4-yl)-1H-pyrrolo[2,3-b]pyridin-3-yl)-4-ethoxypicolinic acid] showed a pIC50 of 5.10 to 6.00.
`CCOc1nc(C(=O)O)c(Cl)cc1-c1cn(C2CCOCC2)c2ncc(-c3c(C)noc3C)cc12` [P-0398, 3-chloro-5-(5-(3,5-dimethylisoxazol-4-yl)-1-(tetrahydro-2H-pyran-4-yl)-1H-pyrrolo[2,3-b]pyridin-3-yl)-6-ethoxypicolinic acid] was tested, and the pIC50 was 3.00 to 5.10.
`Cc1noc(C)c1-c1cnc2c(c1)c(-c1ccnc(C(=O)O)c1C)cn2C(C1CC1)C1CC1` [P-0418, 4-(1-(dicyclopropylmethyl)-5-(3,5-dimethylisoxazol-4-yl)-1H-pyrrolo[2,3-b]pyridin-3-yl)-3-methylpicolinic acid] showed a pIC50 of 6.00 to 10.00.
`CCOc1cc(C(=O)O)nc(OCC)c1-c1cn(-c2cccnc2)c2ncc(-c3c(C)noc3C)cc12` [P-0436, 5-(5-(3,5-dimethylisoxazol-4-yl)-1-(pyridin-3-yl)-1H-pyrrolo[2,3-b]pyridin-3-yl)-4,6-diethoxypicolinic acid] was tested, and the pIC50 was 5.10 to 6.00.
With `CCOc1nc(C(=O)O)ccc1-c1cn(C2(C)CCOCC2)c2ncc(-c3c(C)noc3C)cc12` [P-0405, 5-(5-(3,5-dimethylisoxazol-4-yl)-1-(4-methyltetrahydro-2H-pyran-4-yl)-1H-pyrrolo[2,3-b]pyridin-3-yl)-6-ethoxypicolinic acid] the pIC50 was 5.10 to 6.00.
Compound `Cc1nnn(C)c1-c1cnc2c(c1)c(-c1cccc(C(=O)O)c1)cn2[C@@H](C)c1ccccn1` [P-0449, (S)-3-(5-(1,4-dimethyl-1H-1,2,3-triazol-5-yl)-1-(1-(pyridin-2-yl)ethyl)-1H-pyrrolo[2,3-b]pyridin-3-yl)benzoic acid] has a pIC50 of 5.10 to 6.00.
`CCOc1cc(C(=O)O)nc(OCC)c1-c1cn(-c2ccc(C#N)cc2F)c2ncc(-c3c(C)noc3C)cc12` [P-0423, 5-(1-(4-cyano-2-fluorophenyl)-5-(3,5-dimethylisoxazol-4-yl)-1H-pyrrolo[2,3-b]pyridin-3-yl)-4,6-diethoxypicolinic acid] gave a pIC50 of 5.10 to 6.00.
`CCOc1cc(C(=O)OC)nc(OCC)c1-c1cn(-c2ccc(F)cc2F)c2ncc(-c3c(C)noc3C)cc12` [P-0432, methyl 5-(1-(2,4-difluorophenyl)-5-(3,5-dimethylisoxazol-4-yl)-1H-pyrrolo[2,3-b]pyridin-3-yl)-4,6-diethoxypicolinate] showed a pIC50 of 3.00 to 5.10.
In the case of `CCOc1cc(C(=O)O)nc(OCC)c1-c1cn(C2CCC(F)(F)CC2)c2ncc(-c3c(C)noc3C)cc12` [P-0425, 5-(1-(4,4-difluorocyclohexyl)-5-(3,5-dimethylisoxazol-4-yl)-1H-pyrrolo[2,3-b]pyridin-3-yl)-4,6-diethoxypicolinic acid], the pIC50 was 3.00 to 5.10.
Work on `CCOc1cc(C(=O)O)nc(OCC)c1-c1cn([C@@H](C)c2ccccn2)c2ncc(-c3c(C)noc3C)cc12` [P-0415, (S)-5-(5-(3,5-dimethylisoxazol-4-yl)-1-(1-(pyridin-2-yl)ethyl)-1H-pyrrolo[2,3-b]pyridin-3-yl)-4,6-diethoxypicolinic acid] yielded a pIC50 of 3.00 to 5.10.
With `CCOc1cc(C(=O)O)nc(OCC)c1-c1cn(-c2cnc(C3CC3)nc2)c2ncc(-c3c(C)noc3C)cc12` [P-0424, 5-(1-(2-cyclopropylpyrimidin-5-yl)-5-(3,5-dimethylisoxazol-4-yl)-1H-pyrrolo[2,3-b]pyridin-3-yl)-4,6-diethoxypicolinic acid] the pIC50 was 5.10 to 6.00.
